Experiment [1] has as its system IFN-γ. Put plainly: IFN-γ production by OVA-stimulated spleen lymphocytes of mice fed L. acidophilus (ELISA). Type of experiment: in vivo, C57/BI6 mice. The note with it: fed intragastrically, OVA-sensitised; spleen lymphocytes stimulated with OVA 5 μg/mL for 4 days; FIG. 1B. The protocol: To determine whether probiotic bacteria down-regulate Th2 and up-regulate Th1 cytokine response, C57/BI6 mice were fed intragastrically using a feeding needle, various numbers of Lactobacillus acidophilus (obtained from University of New South Wales, School of Microbiology and Immunology Culture Collection, Sydney, Australia) on consecutive days for 2 weeks after which they were sensitised with 8 μg of ovalbumin (OVA) and aluminium hydroxide in 0.2 mL phosphate-buffered saline administered by peritoneal injection. The mice were further fed ten times with L. acidophilus every two days for two weeks before they were sacrificed. Lymphocytes were isolated by teasing spleens through a sieve, washed with PBS, and resuspended at 10×10^6 One mL aliquots of the cell suspension were dispensed into wells of a 24-well flat-bottomed microtitre plate and stimulated with OVA (5 μg/mL). After incubation for 4 days the supernatants were collected and assayed for IL-4 and IFN-γ production by standard ELISA techniques using IL-4 or IFN-γ monoclonal antibody pairs. Briefly, wells of a 24-well microtitre plate were coated with a capture anti-IL-4 antibody. […] The colour development was read at 450/620 nm in an ELISA plate reader. The level of IL-4 in unknown samples was quantitated by interpolation using a standard curve. […]
(ELISA stands for enzyme-linked immunosorbent assay.)

The subject of the next experiment is Candida albicans. The experiment can be described thus: Resistance to oral C. albicans infection following feeding with probiotic bacteria. Type of experiment: in vivo, DBA/2 mice. The settings on record: 5×10^9 intragastrically every 2 days for 2 weeks. On the procedure: DBA/2 mice H2d male mice (n=3-5 per group) were fed intragastrically every 2 days for 2 weeks with 5×10^9 L. acidophilus in 0.2 mL PBS. One day after the last feed mice were challenged with 10^8 Candida albicans blastospores by swabbing the oral cavity using a fine-tip sterile swab. At various days after infection the number of C. albicans in the oral mucosa was determined. The oral cavity (cheek, tongue and soft palate) was completely swabbed using a fine-tipped cotton swab. The cotton swab was placed in 1 mL PBS and the yeast cells were resuspended by mixing in a vortex mixer before culture of serial 10-fold dilutions on Sabourand dextrose agar supplemented with chloramphenicol at 37° C. The results were expressed as CFU/mL (FIG. 5)

The subject of experiment [2] is IFN-γ. Put plainly: IFN-γ in saliva and cervical lymph node cells after C. albicans challenge (ELISA). Type of experiment: in vivo, DBA/2 mice. On the procedure: A further study on responses to Candida albicans infection was conducted in the model described in Example 3.
Candida antigen was prepared from freshly cultured Candida albicans by sonication in a MSE Soniprep. The sonicate was centrifuged for 10 min at 2000 g after which time the supernatant was collected and dialysed against PBS. After protein estimation, the solution was filtered sterilised and stored at −20° C. until needed.
A single cell suspension of cervical lymph node (CLN) cells was prepared by teasing lymph node tissue through a sieve. The cells were collected in RPMI 1640 medium supplemented with 10% foetal calf serum (FCS), washed twice by centrifugation and cultured at 4×10^6 cells per well in the presence of 2.5 μg/mL of Candida antigen in a 24-well plate for 3 days.
The culture supernatants were collected and assayed for IL-4, IL-12 and IFN-γ by ELISA using matched antibody pairs and recombinant cytokines as standards (Pharmingen, San Diego, Calif.). The sensitivity of the cytokine ELISA was […] and the results were expressed in net amounts from which the background was subtracted.
Samples of saliva were obtained according to the procedure described in example 2.

For a further experiment, the system named is Salmonella typhimurium. The experiment can be described thus: Translocation of Salmonella typhimurium to spleen in mice fed L acidophilus (VRI 011) and given killed Salmonella vaccine. The class given is in vivo, BALB/c mice. The text has this:
Female BALB/c mice 6-8 weeks old were obtained from the Animal Resource Centre, Perth, Wash. Lactobacillus acidophilus strain (VRI 011) and the pathogen Salmonella tyhimurium were obtained from the School of Microbiology and Immunology Type Culture Collection, University of New South Wales.
Mice were given 5 doses of L acidophilus (VRI 011) (1×10^8 cfu per dose) or PBS over a 2 week period after which time mice were immunised intragastrically with a killed oral Salmonella vaccine. Two weeks after immunisation, the mice were sacrificed and the spleens collected for enumeration of L acidophilus and S tyhimurium.

Experiment [3] relates to H. pylori (Sydney strain 1). The experiment can be described thus: Clearance of pre-established H. pylori stomach infection in mice dosed with L. acidophilus. Type of experiment: in vivo, C57BL/6 mice. The protocol:
Two groups of 5 female C57BL/6 mice were infected with H. pylon (Sydney strain 1) by administration of approx. 10^9 live H. pylori on three consecutive days (days 1, 2 and 3) by gavage. On days 28, 30, 32, 35, 37 and 39 mice were dosed by gavage with live L. acidophilus (5×10^9 in 0.2 mL water) or water (control group).
Twenty-one days later ([…]) mice were killed by pentobarbitone overdose (administered intra-peritoneally) and their stomachs removed. The stomach was dissected into two equal halves and one half was placed in 1 mL of deionised water and homogenised. Serial 10-fold dilutions of stomach homogenate were plated out on chocolate agar plates containing fungizone, vancomycin, bacitracin and nalidixic acid. After incubation for 3 days at 37° C. under microaerophilic conditions, the colonies were counted and the total number of live H. pylori in the original stomach homogenate determined.

The next experiment concerns Helicobacter pylori. The experiment can be described thus: Metronidazole therapy of H. pylori infection in mice pre-treated with probiotic. The class given is in vivo. The note with it: for % eradication: compared with saline-treated control group. On the procedure:
H. pylori infected mice (5 per group) were treated with Lactobacillus acidophilus (1×10^9 per animal) by oral feeding 3 times a week for 2 weeks prior to treatment with Metronidazole (0.08 mg/animal) for 1 week.

Marks after values point to notes of the source that are not given here.

Take “Lactobacillus acidophilus [L. acidophilus]”: in the experiment on IFN-γ [1], the “production of IFN-γ” value is recorded as “enhanced”. Also, the “resistance to C. albicans infection (oral mucosa CFU) compared to mice fed PBS” value in the experiment with Candida albicans (all time points, FIG. 5) is “more resistant to infection at all time points”. In addition, the “clearance of yeasts from oral cavity by day 6” value in the experiment on Candida albicans (day 6) is recorded as “almost completely cleared”. For the same substance, in the experiment on IFN-γ [2] (fed mice challenged with C. albicans, controls no detectable IFN-γ until day 6), the “onset of IFN-γ response after C. albicans challenge” value is “early response (day 2)”. Besides, the “IFN-γ response in uninfected mice” value in the experiment on IFN-γ [2] (fed mice, no C. albicans challenge, FIGS. 6 and 7) was “no IFN-γ response”. Also, the “duration of IFN-γ response after C. albicans challenge versus controls not fed” value in the experiment with IFN-γ [2] (still seen in nodes at day 15 and in saliva at day 8) was “more sustained IFN-γ response”. Further, in the experiment on Salmonella typhimurium (fed before or simultaneously with killed oral S typhimurium vaccine, live oral challenge), the “protection against translocation of S typhimurium compared with mice fed PBS” value is listed as “better protection against translocation”. In addition, the “effect of feeding on the vaccine-induced decrease of translocation” value in the experiment with Salmonella typhimurium (feeding in addition to killed oral vaccine) is given as “further enhanced”. In addition, the “Number of H. pylori in stomach homogenate” value in experiment [3] (5×10^9 by gavage on days 28-39 after infection, killed day 50) is given as 105 ± 14 10^4 CFU. In experiment [3] (therapeutic dosing on pre-established infection), the “level of H. pylori infection of the stomach versus control mice” value is “lower level of H. pylori infection”. For the same substance, in the experiment with Helicobacter pylori (L acidophilus 1×10^9 orally 3 times a week for 2 weeks, Metronidazole 0.08 mg/animal for 1 week), the H. pylori colonisation was 10.5 ± 1.4 ×10^5 CFU/animal. For the same substance, the results for the “% eradication” value in the experiment on Helicobacter pylori and with Helicobacter pylori (listed as probiotic) were 58^a % and 58%, respectively.
